What was measured:
Type in all cases: in vivo
Sugar Beet [1] = experiment: pre-emergent herbicidal test; conditions: M
Method: (§1) The pre-emergent test was conducted as follows:
(§2) A good grade of top soil was placed in aluminum pans and compactd to a depth of 0.95 to 1.27 cm. from the top of the pan. On the top of the soil was placed a predetermined number of seeds or vegetative propagules of various plant species. The soil required to level fill the pans after seeding or adding vegetative propagules was weighed into a pan. A known amount of the herbicidal active ingredient applied in a solvent or as a wettable powder and the soil were thoroughly mixed, and used as a cover layer for prepared pans. After treatment the pans were moved into a greenhouse bench where they were watered from below as needed to give adequate moisture for germination and growth.
(§3) A herbicidal rating code was used to signify the extent of phytotoxicity of each species. The ratings are defined as follows: […]

Sorghum [2] = experiment: pre-emergent herbicidal test; conditions: P
Method: as §1, §2, §3

Hemp Sesbania [3] = experiment: pre-emergent herbicidal test; conditions: R
Method: as §1, §2, §3

Wheat [4] = experiment: pre-emergent herbicidal test; conditions: N
Method: as §1, §2, §3

Wild Buckwheat [5] = experiment: pre-emergent herbicidal test; conditions: Q
Method: as §1, §2, §3

Panicum Spp [6] = experiment: pre-emergent herbicidal test; conditions: S
Method: as §1, §2, §3

Crabgrass [7] = experiment: pre-emergent herbicidal test; conditions: T
Method: as §1, §2, §3

Soybean [8] = experiment: pre-emergent herbicidal test; conditions: L
Method: as §1, §2, §3

Rice [9] = experiment: pre-emergent herbicidal test; conditions: O
Method: as §1, §2, §3

Sugar Beet [10] = experiment: post-emergent herbicidal test; conditions: M
Method: (§4) The post-emergent tests were conducted as follows:
(§5) The herbicidal active ingredients are applied in spray form to two or three-week old specimens of various plant species. The spray, a solution or wettable powder suspension containing the appropriate rate of herbicidal active ingredient to give the desired test rate and a surfactant, is applied to the plants. The treated plants are placed in a greenhouse and approximately two or four weeks later the effects are observed and recorded. The results are shown in Tables IX and X in which the post-emergent herbicidal rating code is as follows: […]

Sorghum [11] = experiment: post-emergent herbicidal test; conditions: P
Method: as §4, §5

Hemp Sesbania [12] = experiment: post-emergent herbicidal test; conditions: R
Method: as §4, §5

Wheat [13] = experiment: post-emergent herbicidal test; conditions: N
Method: as §4, §5

Wild Buckwheat [14] = experiment: post-emergent herbicidal test; conditions: Q
Method: as §4, §5

Panicum Spp [15] = experiment: post-emergent herbicidal test; conditions: S
Method: as §4, §5

Crabgrass [16] = experiment: post-emergent herbicidal test; conditions: T
Method: as §4, §5

Soybean [17] = experiment: post-emergent herbicidal test; conditions: L
Method: as §4, §5

Rice [18] = experiment: post-emergent herbicidal test; conditions: O
Method: as §4, §5
Further: ranges in brackets are in %.

SMILES: CCCOC(=N)Cn1c(=O)sc2ccccc21 [Compound 30]
- pre-emergent herbicidal rating (Sugar Beet [1]; 0.28 kg/h, 2 WAT): 1 (25-49)
- pre-emergent herbicidal rating (Sugar Beet [1]; 1.12 kg/h, 4 WAT): 1 (25-49)
- pre-emergent herbicidal rating (Sugar Beet [1]; 5.6 kg/h, 4 WAT): 3 (75-100)
- pre-emergent herbicidal rating (Sorghum [2]; 0.28 kg/h, 2 WAT): 0 (0-24)
- pre-emergent herbicidal rating (Sorghum [2]; 1.12 kg/h, 4 WAT): 0 (0-24)
- pre-emergent herbicidal rating (Sorghum [2]; 5.6 kg/h, 4 WAT): 0 (0-24)
- pre-emergent herbicidal rating (Hemp Sesbania [3]; 0.28 kg/h, 2 WAT): 1 (25-49)
- pre-emergent herbicidal rating (Hemp Sesbania [3]; 1.12 kg/h, 4 WAT): 2 (50-74)
- pre-emergent herbicidal rating (Hemp Sesbania [3]; 5.6 kg/h, 4 WAT): 3 (75-100)
- pre-emergent herbicidal rating (Wheat [4]; 0.28 kg/h, 2 WAT): 0 (0-24)
- pre-emergent herbicidal rating (Wheat [4]; 1.12 kg/h, 4 WAT): 0 (0-24)
- pre-emergent herbicidal rating (Wheat [4]; 5.6 kg/h, 4 WAT): 1 (25-49)
- pre-emergent herbicidal rating (Wild Buckwheat [5]; 0.28 kg/h, 2 WAT): 0 (0-24)
- pre-emergent herbicidal rating (Wild Buckwheat [5]; 1.12 kg/h, 4 WAT): 1 (25-49)
- pre-emergent herbicidal rating (Wild Buckwheat [5]; 5.6 kg/h, 4 WAT): 2 (50-74)
- pre-emergent herbicidal rating (Panicum Spp [6]; 0.28 kg/h, 2 WAT): 0 (0-24)
- pre-emergent herbicidal rating (Panicum Spp [6]; 1.12 kg/h, 4 WAT): 0 (0-24)
- pre-emergent herbicidal rating (Panicum Spp [6]; 5.6 kg/h, 4 WAT): 0 (0-24)
- pre-emergent herbicidal rating (Crabgrass [7]; 0.28 kg/h, 2 WAT): 0 (0-24)
- pre-emergent herbicidal rating (Crabgrass [7]; 1.12 kg/h, 4 WAT): 2 (50-74)
- pre-emergent herbicidal rating (Crabgrass [7]; 5.6 kg/h, 4 WAT): 3 (75-100)
- pre-emergent herbicidal rating (Soybean [8]; 0.28 kg/h, 2 WAT): 0 (0-24)
- pre-emergent herbicidal rating (Soybean [8]; 1.12 kg/h, 4 WAT): 1 (25-49)
- pre-emergent herbicidal rating (Soybean [8]; 5.6 kg/h, 4 WAT): 3 (75-100)
- pre-emergent herbicidal rating (Rice [9]; 0.28 kg/h, 2 WAT): 0 (0-24)
- pre-emergent herbicidal rating (Rice [9]; 1.12 kg/h, 4 WAT): 0 (0-24)
- pre-emergent herbicidal rating (Rice [9]; 5.6 kg/h, 4 WAT): 1 (25-49)

SMILES: COC(=N)Cn1c(=O)sc2ccccc21 [Compound 37]
- post-emergent herbicidal rating (Sugar Beet [10]; 1.12 kg/h, 4 WAT): 2 (50-74)
- post-emergent herbicidal rating (Sugar Beet [10]; 5.6 kg/h, 4 WAT): 2 (50-74)
- post-emergent herbicidal rating (Sorghum [11]; 1.12 kg/h, 4 WAT): 0 (0-24)
- post-emergent herbicidal rating (Sorghum [11]; 5.6 kg/h, 4 WAT): 0 (0-24)
- post-emergent herbicidal rating (Hemp Sesbania [12]; 1.12 kg/h, 4 WAT): 2 (50-74)
- post-emergent herbicidal rating (Hemp Sesbania [12]; 5.6 kg/h, 4 WAT): 3 (75-99)
- post-emergent herbicidal rating (Wheat [13]; 1.12 kg/h, 4 WAT): 0 (0-24)
- post-emergent herbicidal rating (Wheat [13]; 5.6 kg/h, 4 WAT): 0 (0-24)
- post-emergent herbicidal rating (Wild Buckwheat [14]; 1.12 kg/h, 4 WAT): 2 (50-74)
- post-emergent herbicidal rating (Wild Buckwheat [14]; 5.6 kg/h, 4 WAT): 4 (100)
- post-emergent herbicidal rating (Panicum Spp [15]; 1.12 kg/h, 4 WAT): 0 (0-24)
- post-emergent herbicidal rating (Panicum Spp [15]; 5.6 kg/h, 4 WAT): 0 (0-24)
- post-emergent herbicidal rating (Crabgrass [16]; 1.12 kg/h, 4 WAT): 0 (0-24)
- post-emergent herbicidal rating (Crabgrass [16]; 5.6 kg/h, 4 WAT): 1 (25-49)
- post-emergent herbicidal rating (Soybean [17]; 1.12 kg/h, 4 WAT): 1 (25-49)
- post-emergent herbicidal rating (Soybean [17]; 5.6 kg/h, 4 WAT): 2 (50-74)
- post-emergent herbicidal rating (Rice [18]; 1.12 kg/h, 4 WAT): 0 (0-24)
- post-emergent herbicidal rating (Rice [18]; 5.6 kg/h, 4 WAT): 0 (0-24)

SMILES: COC(=N)Cn1c(=O)sc2ccccc21 [Compound 38]
- post-emergent herbicidal rating (Sugar Beet [10]; 0.28 kg/h, 2 WAT): 1 (25-49)
- post-emergent herbicidal rating (Sugar Beet [10]; 1.12 kg/h, 4 WAT): 2 (50-74)
- post-emergent herbicidal rating (Sorghum [11]; 0.28 kg/h, 2 WAT): 0 (0-24)
- post-emergent herbicidal rating (Sorghum [11]; 1.12 kg/h, 4 WAT): 0 (0-24)
- post-emergent herbicidal rating (Hemp Sesbania [12]; 0.28 kg/h, 2 WAT): 0 (0-24)
- post-emergent herbicidal rating (Hemp Sesbania [12]; 1.12 kg/h, 4 WAT): 1 (25-49)
- post-emergent herbicidal rating (Wheat [13]; 0.28 kg/h, 2 WAT): 0 (0-24)
- post-emergent herbicidal rating (Wheat [13]; 1.12 kg/h, 4 WAT): 0 (0-24)
- post-emergent herbicidal rating (Wild Buckwheat [14]; 0.28 kg/h, 2 WAT): 0 (0-24)
- post-emergent herbicidal rating (Wild Buckwheat [14]; 1.12 kg/h, 4 WAT): 2 (50-74)
- post-emergent herbicidal rating (Panicum Spp [15]; 0.28 kg/h, 2 WAT): 0 (0-24)
- post-emergent herbicidal rating (Panicum Spp [15]; 1.12 kg/h, 4 WAT): 0 (0-24)
- post-emergent herbicidal rating (Crabgrass [16]; 0.28 kg/h, 2 WAT): 0 (0-24)
- post-emergent herbicidal rating (Crabgrass [16]; 1.12 kg/h, 4 WAT): 0 (0-24)
- post-emergent herbicidal rating (Soybean [17]; 0.28 kg/h, 2 WAT): 1 (25-49)
- post-emergent herbicidal rating (Soybean [17]; 1.12 kg/h, 4 WAT): 1 (25-49)
- post-emergent herbicidal rating (Rice [18]; 0.28 kg/h, 2 WAT): 0 (0-24)
- post-emergent herbicidal rating (Rice [18]; 1.12 kg/h, 4 WAT): 1 (25-49)

Source: patent US4228292A, “N-Substituted benzothiazolines and benzoxazolines and their use as herbicides and plant growth regulants” (Monsanto Company, priority 1978, dated 1980)
